Reference: patent US10363239B2, “Method for inhibiting growth of cancer cells” (Pain Therapeutics, Inc., priority 2013, dated 2019)
Read-outs that look alike come from different tables or passages of the source.

How the values were obtained:
[1] = biological target: FLNA pentapeptide of SEQ ID NO: 1 (Bn-VAKGL) (Homo sapiens, UniProt P21333); assay: FITC-NLX-based FLNA screening assay (inhibition of FITC-naloxone binding to Bn-VAKGL on streptavidin plates); details: for inhibition at 0.01 µM / inhibition at 0.1 µM / inhibition at 1 µM: 10 nM FITC-NLX
[2] = test system: mu opiate receptor (MOR); assay: MOR agonist activity using [35S]GTPγS binding assay in striatal membranes; format: biochemical; details: for MOR agonist activity ([35S]GTPγS binding), FLNA-Binding Compound as Agonist 1 μM + BFNA: 1 μM compound + 1 μM β-funaltrexamine
Procedure, shortened: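 Striatal membranes (200 μg) were preincubated 5 min at 30 °C in HEPES pH 7.5 with 100 mM NaCl, 1 mM MgCl2 and 0.5 nM [35S]GTPγS, then 5 min more with 0.1–10 μM compound. Gαo was immunoprecipitated and bound radioactivity counted by scintillation.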

[3] = read-out: Percent Binding Inhibition, FLNA-binding compound 0.01 μM
[4] = read-out: Percent Binding Inhibition, FLNA-binding compound 0.1 μM
[5] = read-out: Percent Binding Inhibition, FLNA-binding compound 1 μM
[6] = Series B, 0.1 μM compound, relative to DAMGO
[7] = Series B, 0.1 μM compound, [35S]GTPγS binding to Gαo, striatal membranes
[8] = Series B, 1 μM compound + 1 μM β-FNA
[9] = Series B, 1 μM compound + β-FNA, relative to DAMGO + BFNA
[10] = Series B, 1 μM compound, relative to DAMGO
[11] = Series B, 1 μM compound, [35S]GTPγS binding to Gαo, striatal membranes
[12] = FLNA-binding compound 0.01 μM, read-out: Percent Binding Inhibition
[13] = FLNA-binding compound 0.1 μM, read-out: Percent Binding Inhibition
[14] = FLNA-binding compound 1 μM, read-out: Percent Binding Inhibition
[15] = 0.1 μM compound relative to DAMGO
[16] = 1 μM compound + BFNA relative to DAMGO + BFNA
[17] = 1 μM compound relative to DAMGO
[18] = Series C-1, 0.1 μM compound, relative to DAMGO
[19] = Series C-1, 0.1 μM compound, [35S]GTPγS binding to Gαo, striatal membranes
[20] = Series C-1, 1 μM compound + 1 μM β-FNA
[21] = Series C-1, 1 μM compound + β-FNA, relative to DAMGO + BFNA
[22] = Series C-1, 1 μM compound, relative to DAMGO
[23] = Series C-1, 1 μM compound, [35S]GTPγS binding to Gαo, striatal membranes

SMILES	inhibition at 0.01 µM [1, 3] [%]	inhibition at 0.1 µM [1, 4] [%]	inhibition at 1 µM [1, 5] [%]	inhibition at 0.01 µM [1, 12] [%]	inhibition at 0.1 µM [1, 13] [%]	inhibition at 1 µM [1, 14] [%]	MOR agonist activity ([35S]GTPγS binding), FLNA-Binding Compound as Agonist 0.1 μM ([2]; 0.1 μM compound) [%]	% DAMGO (0.1 μM) [2, 15] [%]	MOR agonist activity ([35S]GTPγS binding), FLNA-Binding Compound as Agonist 1 μM ([2]; 1 μM compound) [%]	MOR agonist activity ([35S]GTPγS binding), FLNA-Binding Compound as Agonist 1 μM + BFNA [2] [%]	% DAMGO + BFNA [2, 16] [%]	% DAMGO (1 μM) [2, 17] [%]	% DAMGO (0.1 μM) [2, 18] [%]	Concentration of FLNA-Binding Compound as Agonist 0.1 μM [2, 19] [%]	Concentration of FLNA-Binding Compound as Agonist 1 μM + BFNA [2, 20] [%]	% DAMGO + BFNA [2, 21] [%]	% DAMGO (1 μM) [2, 22] [%]	Concentration of FLNA-Binding Compound as Agonist 1 μM [2, 23] [%]	also measured
COc1cccc(OC)c1C(=O)CC1c2c(cc3c(c2OC)OCO3)CC[N+]1(C)C (centres unmarked) [Compound B0023]	28.5	37.8	46.4																% DAMGO (0.1 μM) [2, 6]: 99.4%; MOR agonist activity, percent [35S]GTPγS binding at the stated compound concentration [2, 7]: 166.1%; MOR agonist activity, percent [35S]GTPγS binding at the stated compound concentration [2, 8]: 28.4%; % DAMGO + BFNA [2, 9]: 81.8%; % DAMGO (1 μM) [2, 10]: 100.1%; MOR agonist activity, percent [35S]GTPγS binding at the stated compound concentration [2, 11]: 245.3%
COc1ccc(S(=O)(=O)N2CCOC23CCN(C(C)C)CC3)cc1 [Compound C0133M]				47.8	54.9	58.5													% DAMGO (0.1 μM) ([2]; Series C-2, 0.1 μM compound, relative to DAMGO): 83.2%; MOR agonist activity, percent [35S]GTPγS binding at the stated compound concentration ([2]; Series C-2, 0.1 μM compound, [35S]GTPγS binding to Gαo, striatal membranes): 139.4%; MOR agonist activity, percent [35S]GTPγS binding at the stated compound concentration ([2]; Series C-2, 1 μM compound + 1 μM β-FNA): 72.4%; % DAMGO + BFNA ([2]; Series C-2, 1 μM compound + β-FNA, relative to DAMGO + BFNA): 152.4%; % DAMGO (1 μM) ([2]; Series C-2, 1 μM compound, relative to DAMGO): 96.6%; MOR agonist activity, percent [35S]GTPγS binding at the stated compound concentration ([2]; Series C-2, 1 μM compound, [35S]GTPγS binding to Gαo, striatal membranes): 214.8%
CC1CCC(C(C)C)C(OCC(O)CN2CCC(=O)C(C)C2)C1 (centres unmarked) [Compound A0056]	34.4	40.9	41.3				115.6	74.1	129.6	17.4	43.6	56.2							
CC1CN(CC(O)COc2cc(F)cc(F)c2)CC(C)O1 (centres unmarked) [Compound A0046]				34.3	38.4	40.9	257.5	131.2	354.1	140.0	189.4	128.3							
COc1ccc(C(=O)CC2c3c(cc4c(c3OC)OCO4)CC[N+]2(C)C)c(O)c1 (centres unmarked) [Compound B0033]	42.1	46.8	49.4																% DAMGO (0.1 μM) [2, 6]: 77.6%; MOR agonist activity, percent [35S]GTPγS binding at the stated compound concentration [2, 7]: 149.3%; MOR agonist activity, percent [35S]GTPγS binding at the stated compound concentration [2, 8]: 41.9%; % DAMGO + BFNA [2, 9]: 95.4%; % DAMGO (1 μM) [2, 10]: 69.2%; MOR agonist activity, percent [35S]GTPγS binding at the stated compound concentration [2, 11]: 188.9%
CNc1ccc(S(=O)(=O)N2CCC3(CC2)OCCN3S(=O)(=O)c2ccc(NC)cc2)cc1 [Compound C0024]				37.9	46.4	50.4							92.8	178.4	59.3	135.1	84.1	229.6	
O=S(=O)(c1ccc(C(F)(F)F)cc1Br)N1CCC2(CC1)OCCN2S(=O)(=O)c1ccc(C(F)(F)F)cc1Br [Compound C0071]	39.1	49.6	55.2										160.5	276.3	177.1	513.3	161.7	355.3	
NS(=O)(=O)c1ccc(S(=O)(=O)N2CCC3(CC2)OCCN3S(=O)(=O)c2ccc(S(N)(=O)=O)cc2)cc1 [Compound C0034]	29.6	38.3	44.8										61.3	103.6	80.1	482.5	76.7	167.9	
O=S(=O)(c1ccc(OC(F)(F)F)cc1)N1CCOC12CCN(CC1CC1)CC2 [Compound 4]																			Binding to FLNA (conclusion in words) ([1]; preliminary study): bound well to FLNA; MOR agonist activity, FLNA-Binding Compound as Agonist 0.1 μM (preliminary study) ([2]; 0.1 μM, average of two runs): 133.9%; MOR agonist activity, FLNA-Binding Compound as Agonist 1 μM + βNFA (preliminary study) ([2]; 1 μM + βNFA, average of two runs): 49.5%; MOR agonist activity, FLNA-Binding Compound as Agonist 1 μM (preliminary study) ([2]; 1 μM, average of two runs): 165.2%; MOR agonist activity (conclusion in words) ([2]; preliminary study): not as potent a MOR agonist
O=S(=O)(c1ccc(Br)cc1F)N1CCC2(CC1)OCCN2S(=O)(=O)c1ccc(Br)cc1F [Compound C0078]	46.6	48	50.5										82.4	138.1	170.7	359.4	106.4	236.6	
O=S(=O)(c1cccs1)N1CCC2(CC1)OCCN2S(=O)(=O)c1cccs1 [Compound C0141M]	33.1	39	46.9										109.9	161.5	47.9	121.9	105.8	213.9	
Cc1ccc(C(C)C)c(OCC(O)CN2CC(C)OC(C)C2)c1 (centres unmarked) [Compound A0028]				39.5	43.8	50.5	143.6	81.3	187.7	116.7	443.7	73.8							
CC1CCC(C(C)C)C(OCC(O)CN2CCN(C)CC2)C1 (centres unmarked) [Compound A0009]				26.4	37.8	38.9	70.2	39.8	126.4	93.9	142.9	48.7							
CC1CCC(C(C)C)C(OCC(O)CN2CCSC2)C1 (centres unmarked) [Compound A0002]				38.7	43.7	49.9	155.6	104.1	199.4	6.5	24.5	86.6							
OC(COc1ccc(Br)c(F)c1)CN1CCCCC1 (centres unmarked) [Compound A0058]	28.9	36.6	42.1				70.7	45.3	244.3	59.9	150.1	106.0							
